Laboratory results taken from patent publication US20180185308A1, “COMPOSITIONS AND METHODS FOR TREATING INFLAMMATORY DISEASE OR CONDITIONS” (Matinas BioPharma Nanotechnologies, Inc., priority 2015, published 2018).

Assays:
[1] = Solubility of ibuprofen in oils; format: physicochemical
[2] = test system: carrageenan-induced paw inflammation; assay: Rat carrageenan-induced paw inflammation (paw edema) assay; format: in vivo, Male Sprague Dawley rats; settings: oral, one hour prior to carrageenan, paw weight difference four hours after carrageenan
Protocol: The in vivo efficacy if NSAID cochleates was tested in a rat carrageenan-induced paw inflammation assay.
Two types of ibuprofen-containing cochleates were prepared, crystal cochleates and geode cochleates. The cochleates were prepared with using soy phosphatidylserine as a negative phospholipid. To prepare the ibuprofen geode cochleate, the soy phosphatidylserine was combined with castor oil and ibuprofen and mixed to form a stable emulsion comprising a mixture of liposomes and lipid monolayers comprising the phosphatidylserine surrounding a hydrophobic domain (castor oil), with the ibuprofen dispersed within the castor oil. […] Crystal and geode cochleates containing 50, 10, 2, 0.4, or 0.1 mg/kg of ibuprofen were prepared. Male Sprague Dawley rats were treated orally (one hour prior to right hind footpad injection of carrageenan) with vehicle, a commercial preparation of ibuprofen or ibuprofen formulated in either crystal or geode cochleates and were evaluated for effects of treatment on inflammatory edema. Animals were sacrificed five hours after dosing with test articles (four hours after carrageenan injection). Efficacy evaluation was based on weight difference due to inflammation-induced swelling in injected (right) vs. uninjected (left) paws. In addition, gastric mucosa were evaluated for differences in incidence and severity of mucosal congestion and erosions.

[3] = test system: gastric mucosa; assay: Evaluation of gastric mucosa for lesions/erosions in rats after oral dosing; format: in vivo, Male Sprague Dawley rats
Protocol: Male Sprague Dawley rats were treated orally (one hour prior to right hind footpad injection of carrageenan) with vehicle, a commercial preparation of ibuprofen or ibuprofen formulated in either crystal or geode cochleates and were evaluated for effects of treatment on inflammatory edema. Animals were sacrificed five hours after dosing with test articles (four hours after carrageenan injection). Efficacy evaluation was based on weight difference due to inflammation-induced swelling in injected (right) vs. uninjected (left) paws. In addition, gastric mucosa were evaluated for differences in incidence and severity of mucosal congestion and erosions.

[4] = rats, ibuprofen at 50 mg/kg oral

SMILES: CC(C)Cc1ccc(C(C)C(=O)O)cc1 (stereo not drawn) [Commercial ibuprofen, ibuprofen]
- solubility in castor oil compared with other oils [1]: substantially more soluble in castor oil than other oils
- ED50 [2]: 30 mg/kg
- rats with gastric lesions (incidence) ([3]; 10 mg/kg, oral): 1 of 10
- rats with gastric lesions (incidence) ([3]; 10 mg/kg, oral, listed as commercial preparation of ibuprofen): Some rats
- number of gastric lesions and total stomach lesion length (in words) ([3]; 50 mg/kg, oral): significantly increased numbers of gastric lesions and increased total stomach lesion length
- Average Size of Lesion [3, 4]: 7.2 ± 1.9
- Number of Lesions per Animal [3, 4]: 4.1 ± 0.8
- Number of Animals with Lesions ([3]; rats, ibuprofen at 50 mg/kg oral, five hours after dosing, groups of 10): 9
- rats with gastric lesions (incidence) ([3]; single-dose 50 mg/kg (highest dose), oral): 9 of 10
